Data from patent publication US5061794A, “Cephalosporin derivatives, and antibacterial agents” (priority 1986, dated 1991).
Values after ≈ are worked out from the molar mass of the structure shown. Where two headings read alike, the source gives them in different places.

Columns and labels:
[1] = tested on: Ps. cepacia 23; experiment: in vitro antibacterial activity, agar plate dilution method (MIC); type: cell-based, Pseudomonas cepacia; conditions: read-out: Minimum Inhibitory Concentration (MIC)
Summary of the method: (§1)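 Plate dilution on Mueller Hinton agar with various antibiotic concentrations. Inoculum size was 10^6 CFU/ml, incubation 16 hours at 37° C.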

[2] = tested on: E. coli CSH(RE45); experiment: microbe, parasite or virus in culture; type: cell-based; conditions: Escherichia coli, 16 h, read-out: Minimum Inhibitory Concentration (MIC), *E. coli CSH(RE45), lactamase-producing strain; 10^6 CFU/ml
Summary of the method: as §1

[3] = tested on: E. coli CSH2 (RK1); experiment: microbe, parasite or virus in culture; type: cell-based; conditions: Escherichia coli, 16 h, read-out: Minimum Inhibitory Concentration (MIC), *E. coli CSH2 (RK1), lactamase-producing strain; 10^6 CFU/ml
Summary of the method: as §1

[4] = tested on: A. calcoaceticus No. 4; experiment: in vitro antibacterial activity, agar plate dilution method (MIC); type: cell-based, Acinetobacter calcoaceticus; conditions: Acinetobacter calcoaceticus, NO.4, 16 h, 10^6 CFU/ml
Summary of the method: as §1

[5] = tested on: E. coli GN5482; experiment: as above; type: cell-based; conditions: Escherichia coli, GN5482, 16 h
Summary of the method: as §1

[6] = tested on: P. vulgaris HX-19; experiment: as above; type: cell-based; conditions: Proteus vulgaris, HX19, 16 h, P. vulgaris HX-19; 10^6 CFU/ml; read-out: Minimum Inhibitory Concentration (MIC)
Summary of the method: as §1

[7] = tested on: S. marcescens IAM 1184; experiment: as above; type: cell-based; conditions: Serratia marcescens, IAM1184, 16 h, read-out: Minimum Inhibitory Concentration (MIC)
Summary of the method: as §1

[8] = tested on: K. pneumoniae PCI-602; experiment: as above; type: cell-based; conditions: Klebsiella pneumoniae, PCI602, 16 h, 10^6 CFU/ml
Summary of the method: as §1

[9] = tested on: E. cloacae 963; experiment: as above; type: cell-based; conditions: Enterobacter cloacae, 963, 16 h, read-out: Minimum Inhibitory Concentration (MIC), E. cloacae 963; 10^6 CFU/ml
Summary of the method: as §1

[10] = tested on: E. coli NIHJ JC2; experiment: as above; type: cell-based; conditions: Escherichia coli, NIHJJC2, 16 h, read-out: Minimum Inhibitory Concentration (MIC), E. coli NIHJ JC2, 10^6 CFU/ml, 37° C.
Summary of the method: as §1

[11] = tested on: K. oxytoca GN10650; experiment: as above; type: cell-based; conditions: Klebsiella oxytoca, GN10650, 16 h, read-out: Minimum Inhibitory Concentration (MIC), *K. oxytoca GN10650, lactamase-producing strain; 10^6 CFU/ml
Summary of the method: as §1

[12] = tested on: P. vulgaris No. 33; experiment: as above; type: cell-based; conditions: Proteus vulgaris, NO.33, 16 h, read-out: Minimum Inhibitory Concentration (MIC), *P. vulgaris No. 33, lactamase-producing strain; 10^6 CFU/ml
Summary of the method: as §1

[13] = tested on: K. pneumoniae No. 42; experiment: as above; type: cell-based; conditions: Klebsiella pneumoniae, 10^6 CFU/ml
Summary of the method: as §1

[14] = tested on: S. marcescens No. 16-2; experiment: as above; type: cell-based; conditions: Serratia marcescens, NO.162, 16 h
Summary of the method: as §1

[15] = tested on: M. morganii GN5407; experiment: as above; type: cell-based; conditions: Morganella morganii, GN5407, 16 h, read-out: Minimum Inhibitory Concentration (MIC), *M. morganii GN5407, lactamase-producing strain; 10^6 CFU/ml
Summary of the method: as §1

[16] = tested on: E. cloacae Nek 39; experiment: as above; type: cell-based; conditions: Enterobacter cloacae, NEK39, 16 h, 10^6 CFU/ml
Summary of the method: as §1

[17] = tested on: S. aureus 209P NIHJ-JC1; experiment: as above; type: cell-based; conditions: Staphylococcus aureus, 16 h, 10^6 CFU/ml, 37° C., 16 hours
Summary of the method: as §1

[18] = tested on: Ps. aeruginosa IF03445; experiment: as above; type: cell-based, Pseudomonas aeruginosa; conditions: Pseudomonas aeruginosa, 10^6 CFU/ml
Summary of the method: as §1

[19] = tested on: Ps. aeruginosa AK 109; experiment: as above; type: cell-based, Pseudomonas aeruginosa; conditions: Pseudomonas aeruginosa, AK109, 16 h
Summary of the method: as §1

[20] = tested on: Ps. aeruginosa AKR17; experiment: as above; type: cell-based, Pseudomonas aeruginosa; conditions: Pseudomonas aeruginosa
Summary of the method: as §1

[21] = Burkholderia cepacia, 16 h, Ps. cepacia 23, 10^6 CFU/ml
[22] = A. calcoaceticus No. 4, read-out: Minimum Inhibitory Concentration (MIC)
[23] = read-out: Minimum Inhibitory Concentration (MIC), *E. coli GN5482, lactamase-producing strain, 10^6 CFU/ml
[24] = read-out: Minimum Inhibitory Concentration (MIC), K. pneumoniae PCI-602
[25] = read-out: Minimum Inhibitory Concentration (MIC)
[26] = read-out: Minimum Inhibitory Concentration (MIC), *E. cloacae Nek 39, lactamase-producing strain
[27] = read-out: Minimum Inhibitory Concentration (MIC), S. aureus 209P NIHJ-JC1
[28] = IF03445, 16 h, read-out: Minimum Inhibitory Concentration (MIC), Ps. aeruginosa IF03445
[29] = 16 h, Ps. aeruginosa AKR17, 10^6 CFU/ml, read-out: Minimum Inhibitory Concentration (MIC)
[30] = read-out: Minimum Inhibitory Concentration (MIC), A. calcoaceticus No. 4
[31] = NO.42, 16 h, read-out: Minimum Inhibitory Concentration (MIC), *K. pneumoniae No. 42, lactamase-producing strain
[32] = read-out: Minimum Inhibitory Concentration (MIC), *S. marcescens No. 16-2, lactamase-producing strain, 10^6 CFU/ml
[33] = Ps. aeruginosa AK 109, 10^6 CFU/ml, read-out: Minimum Inhibitory Concentration (MIC)
[34] = S. marcescens IAM 1184, 10^6 CFU/ml
[35] = K. pneumoniae PCI-602, read-out: Minimum Inhibitory Concentration (MIC)
[36] = read-out: Minimum Inhibitory Concentration (MIC), Ps. aeruginosa AK 109, 10^6 CFU/ml
[37] = AKR17, 16 h, read-out: Minimum Inhibitory Concentration (MIC), Ps. aeruginosa AKR17, 10^6 CFU/ml
[38] = *S. marcescens No. 16-2, lactamase-producing strain, 10^6 CFU/ml, read-out: Minimum Inhibitory Concentration (MIC)

| Structure (SMILES) | MIC [1, 21] [µg/mL] | MIC [2] [µg/mL] | MIC [3] [µg/mL] | MIC [5, 23] [µg/mL] | MIC [6] [µg/mL] | MIC [8, 24] [µg/mL] | MIC [9] [µg/mL] | MIC [10] [µg/mL] | MIC [11] [µg/mL] | MIC [12] [µg/mL] | MIC [15] [µg/mL] | MIC [16, 26] [µg/mL] | MIC [17, 27] [µg/mL] | MIC [18, 28] [µg/mL] | MIC [20, 29] [µg/mL] | MIC [4, 30] [µg/mL] | MIC [5, 25] [µg/mL] | MIC [13, 31] [µg/mL] | MIC [7, 34] [µg/mL] | MIC [19, 36] [µg/mL] | other results |
| --- | --- | --- | --- | --- | --- | --- | --- | --- | --- | --- | --- | --- | --- | --- | --- | --- | --- | --- | --- | --- | --- |
| C=CCO/N=C(\C(=O)N[C@@H]1C(=O)N2C(C(=O)O)=C(CSc3nnc(-c4ccc(O)c(O)c4)s3)CS[C@H]12)c1csc(N)n1 [compound 30, sodium 78-[2-allyloxyimino-2-(2-aminothiazol-4-yl)acetamido]-3-[5-(3,4-dihydroxyphenyl)-1,3,4-thiadiazol-2-yl]thiomethyl-3-cephem-4-carboxylate] | < 0.006 | 0.78 | 0.0125 | 0.78 | < 0.006 | < 0.006 | 0.05 | 0.2 | 1.56 | 0.39 | 0.05 | 0.1 | 0.78 | 0.39 | 25 |  |  |  |  |  | MIC [4, 22]: 0.2 µg/mL; MIC [7]: 0.0125 µg/mL; MIC ([13]; 16 h, *K. pneumoniae No. 42, lactamase-producing strain, read-out: Minimum Inhibitory Concentration (MIC)): < 0.006 µg/mL; MIC [14, 25]: 12.5 µg/mL; MIC [19, 25]: 0.39 µg/mL |
| CC(C)(O/N=C(\C(=O)N[C@@H]1C(=O)N2C(C(=O)O)=C(CSc3nnc(-c4ccc(O)cc4)s3)CS[C@H]12)c1csc(N)n1)C(=O)O [compound 8, disodium 7β-[2-(2-aminothiazol-4-yl)-2-(1-carboxylate-1-methylethoxyimino)acetamido]-3-[5-(4-hydroxyphenyl)-1,3,4-thiadiazol-2-yl)thiomethyl-3-cephem-4-carboxylate, reference compound] |  | 0.78 | 0.78 |  | < 0.006 | 0.1 | 6.25 | 3.12 | 6.25 | 0.2 | 1.56 |  | 6.25 |  | > 100 | 3.12 | 3.12 | 3.12 |  |  | MIC ([1]; Burkholderia cepacia, 23, 16 h): 6.25 µg/mL; MIC [7]: 0.78 µg/mL; MIC [14, 32]: 6.25 µg/mL; MIC ([16]; *E. cloacae Nek 39, lactamase-producing strain, read-out: Minimum Inhibitory Concentration (MIC)): 25 µg/mL; MIC ([18]; 16 h, Ps. aeruginosa IF03445, read-out: Minimum Inhibitory Concentration (MIC)): 25 µg/mL; MIC [19, 33]: 25 µg/mL |
| CC(C)(ON=C(C(=O)NC1C(=O)N2C(C(=O)O)=C(CSc3nc(-c4ccc(O)c(O)c4)c(CC(=O)O)s3)CSC12)c1csc(N)n1)C(=O)O (stereo not drawn) [Example 59 (I), trisodium 7β-[2-(2-aminothiazol-4-yl)-2-(1-carboxylate-1-methylethoxyimino)acetamido]-3-[4-(3,4-dihydroxyphenyl)-5-carboxylatemethylthiazol-2yl]thiomethyl-3-cephem-4-carboxylate] | < 0.006 | 0.05 | 0.025 | 1.56 | 0.025 |  | 0.39 | 1.56 | 0.1 | 0.1 | 0.1 | 0.2 |  | 1.56 |  |  |  | 0.2 | 0.2 | 1.56 | MIC [4, 22]: 0.2 µg/mL; MIC [8, 35]: 0.0125 µg/mL; MIC [14, 32]: 1.56 µg/mL; MIC ([17]; S. aureus 209P NIHJ-JC1, read-out: Minimum Inhibitory Concentration (MIC)): 100 µg/mL; MIC [20, 37]: 1.56 µg/mL |
| Nc1nc(C(=NOC2(C(=O)O)CC2)C(=O)NC2C(=O)N3C(C(=O)O)=C(CSc4nc(-c5ccc(O)c(O)c5)cs4)CSC23)cs1 (stereo not drawn) [Ex. 45, disodium 7β-[2-(2-aminothiazol-4-yl)-2-(1-carboxvlate-1-cyclopropoxyimino)acetamido]-3-[4-(3,4-dihvdroxvphenyl)thiazol-2-yl]thiomethyl-3-cephem-4-carboxylate] | < 0.006 | 0.05 | 0.025 |  | < 0.006 | < 0.006 | 0.05 | 0.2 | 0.1 | 0.025 | 0.05 | 0.05 | 6.25 | 0.78 |  | 0.1 | 0.39 | 0.1 | 0.05 | 0.78 | MIC [14, 25]: 0.39 µg/mL; MIC [20, 37]: 6.25 µg/mL |
| Nc1nc(/C(=N/OCc2ccc(O)c(O)c2)C(=O)N[C@@H]2C(=O)N3C(C(=O)O)=C(CSc4nnc(-c5ccc(O)c(O)c5)o4)CS[C@H]23)cs1 [Ex. 14, sodium 7β-[2-(2-aminothiazol-4-yl)-2-(3,4-dihydroxybenzyloxyimino)acetamido]-3-[5-(3,4-dihydroxyphenyl)-1,3,4-oxadiazol-2-yl]thiomethyl-3-cephem-4-carboxylate] | 0.1 | 3.12 | 0.05 |  | 0.05 | < 0.006 | 0.39 | 0.39 | 6.25 | 0.2 | 0.1 | 1.56 | 1.56 | 12.5 | > 100 | 0.39 | 3.12 | 0.39 | 0.1 |  | MIC [14, 38]: 25 µg/mL; MIC [19, 33]: 100 µg/mL |
| Nc1nc(/C(=N/OC(C(=O)O)c2ccc(O)c(O)c2)C(=O)N[C@@H]2C(=O)N3C(C(=O)O)=C(CSc4nnc(-c5ccc(O)c(O)c5)o4)CS[C@H]23)cs1 (stereo partly drawn) [compound 16] | < 0.006 | 3.12 (≈ 4.12 µM) | 0.025 (≈ 0.033 µM) | 0.78 (≈ 1.03 µM) | 0.05 (≈ 0.066 µM) |  | 0.39 (≈ 0.515 µM) | 0.2 (≈ 0.264 µM) | 0.1 (≈ 0.132 µM) | 0.78 (≈ 1.03 µM) | 0.2 (≈ 0.264 µM) | 0.78 (≈ 1.03 µM) | 1.56 (≈ 2.06 µM) | 6.25 (≈ 8.25 µM) |  | 0.1 (≈ 0.132 µM) |  | 0.2 (≈ 0.264 µM) | 0.1 (≈ 0.132 µM) | 0.78 (≈ 1.03 µM) | MIC [8, 35]: < 0.006 µg/mL; MIC [14, 38]: 25 µg/mL (≈ 33 µM); MIC ([20]; AKR17, 16 h, read-out: Minimum Inhibitory Concentration (MIC)): 3.12 µg/mL (≈ 4.12 µM) |
